Laboratory results: doi:10.64898/2025.12.15.694443v1 (biorxiv, 2025)

Key:
[1] = biological target: T1, CRAF^SSDD (CRAF^SSDD/MEK1) (Homo sapiens, UniProt P04049, Y340D/Y341D); assay: TR-FRET MEK phosphorylation assay, bell-shaped fit; format: biochemical
[2] = biological target: T1, CRAF^SSDD (CRAF^SSDD/MEK1); assay: biochemical
[3] = biological target: T2, ARAF monomer complex (ARAF/MEK1 SASA) (Homo sapiens, UniProt P10398); assay: TR-FRET MEK phosphorylation assay, bell-shaped fit; format: biochemical
[4] = biological target: BRAF monomer complex (BRAF/MEK1 SASA) (Homo sapiens, UniProt P15056); assay: TR-FRET MEK phosphorylation assay, bell-shaped fit; format: biochemical; conditions: […] enzyme, […] ATP, […] MEK-B, […] DMSO; unreliable
[5] = biological target: T3, CRAF monomer complex (CRAF/MEK1 SASA) (Homo sapiens, UniProt P04049); assay: TR-FRET MEK phosphorylation assay, bell-shaped fit; format: biochemical
[6] = biological target: T4, ARAF^SSDD (ARAF^SSDD/MEK1) (Homo sapiens, UniProt P10398, G300S/Y301D/Y302D); assay: biochemical
[7] = biological target: T2, ARAF monomer complex (ARAF/MEK1 SASA); assay: TR-FRET MEK phosphorylation assay, bell-shaped fit; format: biochemical; remark: listed apart in the source
[8] = biological target: T3, CRAF monomer complex (CRAF/MEK1 SASA); assay: TR-FRET MEK phosphorylation assay, bell-shaped fit; format: biochemical; remark: listed apart in the source
[9] = biological target: T4, ARAF^SSDD (ARAF^SSDD/MEK1); assay: TR-FRET MEK phosphorylation assay, bell-shaped fit; format: biochemical

T1 sequence (P04049 314-618 Y340D/Y341D): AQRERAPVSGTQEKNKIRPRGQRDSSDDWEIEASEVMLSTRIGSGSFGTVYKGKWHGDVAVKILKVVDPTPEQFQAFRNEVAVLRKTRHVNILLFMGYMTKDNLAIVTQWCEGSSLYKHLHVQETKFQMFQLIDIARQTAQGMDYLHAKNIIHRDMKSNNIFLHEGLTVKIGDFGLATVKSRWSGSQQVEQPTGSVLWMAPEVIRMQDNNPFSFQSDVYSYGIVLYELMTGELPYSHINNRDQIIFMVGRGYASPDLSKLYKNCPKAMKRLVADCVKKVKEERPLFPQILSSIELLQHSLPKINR
T1 sequence (Q02750 whole entry S218A/S222A partner): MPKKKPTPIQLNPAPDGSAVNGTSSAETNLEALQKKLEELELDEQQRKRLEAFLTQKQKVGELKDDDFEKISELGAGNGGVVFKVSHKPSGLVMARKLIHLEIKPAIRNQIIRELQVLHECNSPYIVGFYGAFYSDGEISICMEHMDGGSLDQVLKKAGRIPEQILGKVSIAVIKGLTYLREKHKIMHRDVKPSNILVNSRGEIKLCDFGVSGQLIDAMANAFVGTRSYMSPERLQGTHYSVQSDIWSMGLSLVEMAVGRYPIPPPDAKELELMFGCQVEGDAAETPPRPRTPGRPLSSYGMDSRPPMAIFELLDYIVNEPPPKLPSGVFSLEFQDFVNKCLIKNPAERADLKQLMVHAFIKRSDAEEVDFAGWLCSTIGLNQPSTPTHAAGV
T4 sequence (P10398 274-606 G300S/Y301D/Y302D): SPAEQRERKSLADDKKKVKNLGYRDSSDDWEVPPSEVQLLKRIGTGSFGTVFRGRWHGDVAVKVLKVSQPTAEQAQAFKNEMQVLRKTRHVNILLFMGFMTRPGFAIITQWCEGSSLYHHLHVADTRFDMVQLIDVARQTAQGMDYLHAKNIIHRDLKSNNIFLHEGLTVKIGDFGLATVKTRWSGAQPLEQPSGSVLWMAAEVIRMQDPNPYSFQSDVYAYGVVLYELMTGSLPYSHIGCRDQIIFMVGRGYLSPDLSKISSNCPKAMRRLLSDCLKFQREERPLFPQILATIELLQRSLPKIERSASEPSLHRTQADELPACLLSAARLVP
T4 sequence (Q02750 whole entry S218A/S222A partner): as the sequence (Q02750 whole entry S218A/S222A partner) above
T3 sequence (P04049 324-618): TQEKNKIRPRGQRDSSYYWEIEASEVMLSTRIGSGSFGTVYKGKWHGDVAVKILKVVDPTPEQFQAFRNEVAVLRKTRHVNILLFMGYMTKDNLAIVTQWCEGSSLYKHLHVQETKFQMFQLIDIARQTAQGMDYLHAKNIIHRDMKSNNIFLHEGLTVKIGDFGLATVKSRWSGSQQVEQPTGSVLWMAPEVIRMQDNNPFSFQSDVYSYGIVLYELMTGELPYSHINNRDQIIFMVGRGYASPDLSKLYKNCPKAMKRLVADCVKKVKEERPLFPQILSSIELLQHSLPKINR
T3 sequence (Q02750 whole entry S218A/S222A partner): as the sequence (Q02750 whole entry S218A/S222A partner) above
T2 sequence (P10398 282-579): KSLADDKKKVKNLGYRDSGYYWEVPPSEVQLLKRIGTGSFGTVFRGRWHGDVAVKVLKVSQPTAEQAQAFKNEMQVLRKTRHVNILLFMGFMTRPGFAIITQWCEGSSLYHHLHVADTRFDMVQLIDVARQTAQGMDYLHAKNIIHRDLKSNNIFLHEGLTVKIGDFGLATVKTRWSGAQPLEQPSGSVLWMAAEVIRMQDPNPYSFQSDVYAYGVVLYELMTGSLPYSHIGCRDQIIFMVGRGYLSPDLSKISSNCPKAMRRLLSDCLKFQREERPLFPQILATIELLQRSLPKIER
T2 sequence (Q02750 whole entry S218A/S222A partner): as the sequence (Q02750 whole entry S218A/S222A partner) above
BRAF monomer complex (BRAF/MEK1 SASA), sequence (P15056 445-723): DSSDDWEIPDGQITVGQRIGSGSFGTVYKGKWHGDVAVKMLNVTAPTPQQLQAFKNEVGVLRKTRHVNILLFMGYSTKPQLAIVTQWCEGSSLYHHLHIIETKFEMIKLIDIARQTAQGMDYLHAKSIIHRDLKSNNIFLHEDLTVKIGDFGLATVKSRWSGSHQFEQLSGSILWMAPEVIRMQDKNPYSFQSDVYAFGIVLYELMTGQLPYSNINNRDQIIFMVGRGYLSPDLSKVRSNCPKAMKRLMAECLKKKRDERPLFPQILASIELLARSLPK
BRAF monomer complex (BRAF/MEK1 SASA), sequence (Q02750 whole entry S218A/S222A partner): as the sequence (Q02750 whole entry S218A/S222A partner) above

`Cc1ccc2c(Nc3cccc(Cl)c3F)nccc2c1NC(=O)c1csc2c(N)ncnc12` [Belvarafenib] gave an IC50 [1] of 34.6 ± 5.15 nM and an AC50 [2] of 0.07 ± 0.06 nM.

In the case of `CN(C)CCOc1ccc(-c2nc(-c3ccncc3)c(-c3ccc4c(c3)CC/C4=N\O)[nH]2)cc1` [SB590885], the AC50 [3] is reported as 11.7 ± 14.3 nM, the IC50 [4] is reported as 1915 ± 889 nM and the IC50 [1] is reported as greater than 10000 nM. For the same molecule, the IC50 [5] was greater than 10000 nM, the AC50 [6] was 7.62 ± 2.83 nM and the IC50 [7] was greater than 10000 nM. For the same molecule, the AC50 [8] was 242 ± 19.5 nM, the IC50 [9] was greater than 10000 nM and the AC50 [2] was 3.46 ± 1.49 nM.

`Cc1ccc(NC(=O)c2cccc(C(C)(C)C#N)c2)cc1Nc1ccc2ncn(C)c(=O)c2c1` [AZ628] gave an AC50 [6] of 1.72 ± 1.24 nM and an IC50 [9] of 44.4 ± 17.6 nM.

For `Cc1ccc(NC(=O)c2ccnc(C(F)(F)F)c2)cc1-c1cc(OCCO)nc(N2CCOCC2)c1` [Naporafenib], the IC50 [1] was 79.2 ± 24.1 nM, the AC50 [6] was 13.3 ± 5.15 nM and the IC50 [9] was 673 ± 488 nM. It also gave an AC50 [2] of 0.06 ± 0.04 nM.
